From patent US9176118B2, “Methods employing insect models for determining intestinal absorption of chemical compounds” (Entomopharm ApS, priority 2009, dated 2015)

Experiment: Decapitated locust model: hemolymph drug concentration by LCMS after administration via esophageal catheter
Details: male, Locusta migratoria (locust), in vivo
Experimental: The insects may be obtained from local suppliers or bred in house. The grasshoppers were reared under crowded conditions at 28° C. and a 12:12 dark:light photocycle and fed fresh grass and bran. Before experiments the grasshoppers were fed ecologically cultivated wheat for two weeks. Animals used are adult males (in some experiments females) between two to four weeks after adult emergence. After decapitation, test compounds are administrated via a catheter or a probe inserted into the midgut of the animal. At various times after administration hemolymph samples are taken for quantitative determination of drug concentration in the hemolymph. The samples are snap-frozen and stored until analyses. Drug concentration is analysed by HPLC, LC/MSMS or other methods.
The head of male locusts (Locusta migratoria), which have been starving for 12 hours, was cut off and a plastic catheter was inserted under microscope into the esophagus. 20 μl of quinidine (0.1 mg/ml) was administered via the catheter by using a Hamilton syringe.
(§1) 10 and 30 minutes after administration (10 μl) hemolymph was collected with a calibrated capillary tube by puncturing the ventral membrane anterior to the thorax and immediately blown into a tube containing 40 μl aqua dest and 100 μl of acetonitrile. Each sample was centrifuged for 5 minutes (10 000g at 4° C.). 100 μl of the supernatants were transferred to new test tubes for LCMS analysis.
as §1, with “The head of male locusts (Locusta migratoria), which have been starving for 12 hours, was cut off and a plastic catheter was inserted under microscope into the esophagus. 20 μl of quinidine (1 mg/ml) was administered via the catheter by using a Hamilton syringe. 10 and” for “10 and”
The head of male locusts (Locusta migratoria), which have been starving for 12 hours, was cut off and a plastic catheter was inserted under microscope into the esophagus. 20 μl of propranolol (0.1 mg/ml) was administered via the catheter by using a Hamilton syringe.
as §1, with “analysis. […]” for “analysis.”

Compound `Cn1c(=O)c2c(ncn2C)n(C)c1=O` [caffeine] has a concentration at 10 min (2 µg per animal) of 177 ng/mL, a concentration at 30 min (2 µg per animal) of 276 ng/mL and a concentration at 10 min (20 µg per animal) of 1150 ng/mL. For the same compound, the concentration at 30 min (20 µg per animal) was 1660 ng/mL.
